Measurements published in the supplement of paper PMC11061612.

Tests used:
[1] = tested on: A172 (Glioblastoma); assay: Bliss excess, mean over the matrix (fraction); higher = more synergy
Outline: (§1)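 Cell lines in DMEM/F12 or RPMI with 10% FBS were plated in 1536-well plates, held 24 hours at 37°C, 5% CO2, then given two-drug dose matrices for 72 hours (DMSO typically 0.2%). Viability was read by CellTiter-Glo 2.0 luminescence and scaled as inhibition from 0 (vehicle wells) to 1 (blank wells). Combination Emax is the second-highest inhibition in the matrix; Bliss excess is observed combination effect minus expected EA + EB − EA·EB, EA and EB being single-agent effects.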

[2] = tested on: BICR78 (Oral Cavity Carcinoma); assay: as above
Outline: as §1

[3] = tested on: D-283MED (Other Solid Carcinomas); assay: as above
Outline: as §1

[4] = tested on: HCC-827 (Lung Adenocarcinoma); assay: as above
Outline: as §1

[5] = tested on: Saos-2 (Osteosarcoma); assay: as above
Outline: as §1

[6] = tested on: WSU-DLCL2 (B-Cell Non-Hodgkin's Lymphoma); assay: as above
Outline: as §1

[7] = tested on: CAL-39 (Other Solid Carcinomas); assay: combination Emax (second highest fraction inhibited in the dose matrix, 72 h); higher = more inhibition; extreme values may be limits of the assay
Outline: as §1

[8] = tested on: EKVX (Non-Small Cell Lung Carcinoma); assay: as above
Outline: as §1

[9] = tested on: ETK-1 (Biliary Tract Carcinoma); assay: as above
Outline: as §1

[10] = tested on: HCC38 (Breast Carcinoma); assay: as above
Outline: as §1

[11] = tested on: HOP-92 (Non-Small Cell Lung Carcinoma); assay: as above
Outline: as §1

[12] = tested on: MES-SA (Other Solid Carcinomas); assay: as above
Outline: as §1

[13] = tested on: MSTO-211H (Mesothelioma); assay: as above
Outline: as §1

[14] = tested on: P31-FUJ (Acute Myeloid Leukemia); assay: as above
Outline: as §1

[15] = tested on: RCC10RGB (Kidney Carcinoma); assay: as above
Outline: as §1

[16] = tested on: SKN-3 (Head and Neck Carcinoma); assay: as above
Outline: as §1

[17] = tested on: SLVL (B-Cell Non-Hodgkin's Lymphoma); assay: as above
Outline: as §1

[18] = tested on: SNU-61 (Colorectal Carcinoma); assay: as above
Outline: as §1

[19] = tested on: Saos-2 (Osteosarcoma); assay: as above
Outline: as §1

[20] = tested on: YT (Other Blood Carcinomas); assay: as above
Outline: as §1
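Wherever Bliss excess, mean over the matrix is given: after 72 h of two-drug dosing.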

Structure (SMILES)	Bliss excess [1]	Bliss excess [2]	Bliss excess [3]	Bliss excess [4]	Bliss excess [5]	Bliss excess [6]	combination Emax [7]	combination Emax [8]	combination Emax [9]	combination Emax [10]	combination Emax [11]	combination Emax [12]	combination Emax [13]	combination Emax [14]	combination Emax [15]	combination Emax [16]	combination Emax [17]	combination Emax [18]	combination Emax [19]	combination Emax [20]
CN(CCO)CC[C@H](CSc1ccccc1)Nc1ccc(S(=O)(=O)NC(=O)c2ccc(N3CCC([C@@H](O)c4ccccc4-c4ccc(Cl)cc4)CC3)cc2)cc1S(=O)(=O)C(F)(F)F [AZD4320] + C[C@@H](Nc1cc(F)cc(F)c1)c1cc(C(=O)N(C)C)cc2c(=O)cc(N3CCOCC3)oc12 [AZD8186] (first compound max 1 µM, 7x7, partner max 3 µM)	0.0387	-0.0594	0.0429	-0.0294	-0.0258	0.0852	0.41	0.308	0.324	0.884	0.967	0.297	0.751	0.543	0.507	0.277	0.955	0.162	0.478	0.676
CC1(C)CCC(CN2CCN(c3ccc(C(=O)NS(=O)(=O)c4ccc(NCC5CCOCC5)c([N+](=O)[O-])c4)c(Oc4cnc5[nH]ccc5c4)c3)CC2)=C(c2ccc(Cl)cc2)C1 [Venetoclax] + COc1cc(Nc2ncc3c(n2)-c2ccc(Cl)cc2C(c2c(F)cccc2OC)=NC3)ccc1C(=O)O [Alisertib] (first compound max 1 µM, 7x7, partner max 10 µM)	-0.108	-0.0276	0.0345	-0.0795	0.047	0.238	0.704	0.646	0.453	0.179	0.57	0.671	0.734	0.906	0.568	0.374	0.932	0.263	0.682	0.555
CC1(C)CCC(CN2CCN(c3ccc(C(=O)NS(=O)(=O)c4ccc(NCC5CCOCC5)c([N+](=O)[O-])c4)c(Oc4cnc5[nH]ccc5c4)c3)CC2)=C(c2ccc(Cl)cc2)C1 [Venetoclax] + Cc1cc2ncnn2cc1Nc1ncc2c(n1)n(C1CCOCC1)c(=O)n2C [AZD7648] (first compound max 1 µM, 7x7, partner max 10 µM)	-0.0385	-0.0493	-0.051	0.0085	-0.0075	0.0706	0.247	0.161	0.253	0.165	0.263	0.302	0.22	0.856	0.205	0.0976	0.709	0.154	0.325	0.732
CN(CCO)CC[C@H](CSc1ccccc1)Nc1ccc(S(=O)(=O)NC(=O)c2ccc(N3CCC([C@@H](O)c4ccccc4-c4ccc(Cl)cc4)CC3)cc2)cc1S(=O)(=O)C(F)(F)F [AZD4320] + C=CCn1c(=O)c2cnc(Nc3ccc(N4CCN(C)CC4)cc3)nc2n1-c1cccc(C(C)(C)O)n1 [AZD1775] (first compound max 1 µM, partner max 1 µM)	-0.0101	0.0149	-0.0122	-0.0164	0.0348	-0.009	0.345	0.244	0.618	0.903	0.974	0.865	0.933	0.983	0.552	0.368	0.966	0.349	0.707	0.88
Cc1cc2ncnn2cc1Nc1ncc2c(n1)n(C1CCOCC1)c(=O)n2C [AZD7648] + C=CCn1c(=O)c2cnc(Nc3ccc(N4CCN(C)CC4)cc3)nc2n1-c1cccc(C(C)(C)O)n1 [AZD1775] (first compound max 10 µM, partner max 1 µM)	0.0587	0.0189	-0.0959	-0.0044	-0.0696	-0.0048	0.462	0.306	0.452	0.531	0.613	0.75	0.612	0.987	0.552	0.283	0.916	0.401	0.582	0.89
COc1cccc(OCCCN)c1-c1cc(Nc2cnc(C#N)cn2)n[nH]1 [Prexasertib] + CN(C)CCCOc1ccc(-c2ccc3ncc4c(c3c2)n(C2CCOCC2)c(=O)n4C)cn1 [AZD0156] (first compound max 1 µM, 7x7, partner max 1 µM)	0.0542	-0.0292	0.0116	-0.0026	-0.0869	0.0086	0.258	0.265	0.598	0.711	0.704	0.905	0.888	0.998	0.484	0.616	0.951	0.422	0.644	0.964
